Paper PMC11110763, “Carltonine-derived compounds for targeted butyrylcholinesterase inhibition” (RSC Medicinal Chemistry, 2024)
In brackets after ≈: the same amount, converted by molar mass.

Legend:
[1] = Cytotoxicity MTT assay, human neuroblastoma cell line; conditions: SH-SY5Y neuroblastoma cells
Human plasma stability = type: in vitro ADME; conditions: percentage of the remaining compound after 120 min incubation, 1 μM
Experimental: Compound 33 was incubated with human pooled plasma (Batch S00G71, Biowest, France). Briefly, compounds were dissolved in DMSO to produce stock sample solutions. 10 μL of stock solution was added to 990 μL of human plasma to initiate the reaction. […] The reactions were stopped by transferring 200 μL of incubate to 200 μL of acetonitrile containing the internal standard (IS; 67) at appropriate time points (0, 15, 30, 60 and 120 min) and centrifuged at 12 000 rpm for 5 min at 4 °C to precipitate the protein. After that, […] of supernatant was transferred to the vial and analyzed by LC-MS.
The HPLC system used in this study was Dionex Ultimate 3000 UHPLC RS consisting of an RS pump, RS column compartment, RS autosampler and diode array detector controlled by Chromeleon (version 7.2.9. build 11323) software (Thermo Fisher Scientific, Germering, Germany) connected to a Q Exactive Plus Orbitrap mass spectrometer with Thermo Xcalibur (version 3.1.66.10.) software (Thermo Fisher Scientific, Bremen, Germany). […]
For the determination of plasma stability, the percentage of the remaining compound was calculated from the ratio between peak area ratios (compound peak area/internal standard peak area) obtained at incubation times 0 and 120 min.

HepG2 cells = conditions: human, 24 h
Experimental: (§1) For passaging, the cells were treated with trypsin/EDTA (Sigma-Aldrich, St. Louis, USA) at 37 °C and then harvested. For cytotoxicity evaluation, the cells treated with the studied substances were used, while untreated HepG2 cells served as the control group. The cells were seeded in a 96-well plate at a density of 5 × 10^4 cells per well and incubated for 24 hours. All tested compounds were dissolved in DMSO to prepare 10 mM stock solutions and subsequently diluted to the desired concentration just before the cell treatment (the highest DMSO concentration used was 0.5% v/v). Positive and negative controls were included, as well, and the activity of all the samples was determined in triplicate. Plates were incubated for 24 h in a humidified atmosphere containing 5% CO2 at 37 °C. […] Afterwards, the formazan crystals were dissolved in DMSO, and the absorbance of samples was recorded at 570 nm (BioTek, Synergy Neo2 Multi-Mode Reader NEO2SMALPHAB; BioTek, Winooski, VT, USA). IC50 values were calculated by nonlinear regression from a semi-logarithmic plot of incubation concentration versus percentage of absorbance relative to untreated controls using GraphPad Prism software (version 9; GraphPad Software, Inc., La Jolla, CA, USA).

[2] = PAMPA assay (BBB penetration); conditions: for Pe ± SEM: PAMPA, PBS pH 7.4, n = 3; for BBB penetration estimation CNS (+/−): class from PAMPA Pe
From the text: Furthermore, we experimentally determined the ability of 12 highlighted hBChE inhibitors to pass through the BBB using a parallel artificial membrane permeation assay (PAMPA) as described by Di et al.[65] […] The methodology was validated on a set of compounds (positive and negative controls) recognized for their activity in the CNS (Table 3).
In this study, it has been used as a non-cell-based in vitro assay carried out in a coated 96-well membrane filter. The filter membrane of the donor plate was coated with PBL (polar brain lipid, Avanti, USA) in dodecane (4 μl of 20 mg ml^−1 PBL in dodecane) and the acceptor well was filled with 300 μl of PBS (pH 7.4; VA). The tested compounds were dissolved first in DMSO and subsequently diluted with PBS (pH 7.4) to final concentrations of 50–100 μM in the donor wells. […] About 300 μL of the donor solution was added to the donor wells (VD) and the donor filter plate was carefully put on the acceptor plate so that the coated membrane was “in touch” with both the donor solution and acceptor buffer. In principle, the test compound diffused from the donor well through the lipid membrane (area = 0.28 cm^2) to the acceptor well. The concentration of the drug in both the donor and acceptor wells was assessed after 3, 4, 5, and 6 h of incubation in quadruplicate using the UV plate reader Spark (Tecan Group Ltd, Switzerland) at the maximum absorption wavelength of each compound. Besides that, a solution of theoretical compound concentration, simulating the equilibrium state established if the membrane were ideally permeable, was prepared and assessed as well. The concentration of the compounds in the donor and acceptor wells and equilibrium concentration were calculated from the standard curve and expressed as the permeability (Pe) according the equation: [drawing 10] where [drawing 11]

hBChE = hBChE (Homo sapiens, UniProt P06276); test: Enzyme kinetic analysis of hBChE inhibition; type: biochemical
Experimental: A kinetic study was performed to estimate the interaction mode of derivative 33 with hBChE. The inhibition kinetics was calculated from rate curves that were determined at several concentrations of the tested compound and substrate. The type of enzyme inhibition and appropriate kinetic parameters (Ki and Ki′) were determined using nonlinear regression analysis. Results for each type of inhibition model (competitive, non-competitive, uncompetitive and mixed) were compared by the sum-of-squares F-test. […].
The kinetic study of hBChE was conducted using the modified Ellman's method mentioned earlier,[62,74,75] with slight variations applied at the collaborating laboratory. Solutions of the corresponding ChE in phosphate buffer (PB) were prepared to achieve a final activity of 0.002 U μL^−1. The solutions of the tested compounds (8.3 μL at varying concentrations) were pre-incubated for 5 minutes in the assay medium. […] The increase in absorbance was measured for 1 minute at 412 nm using the Multimode microplate reader Synergy 2 (BioTek Inc., Winooski, VT, USA). Nunc flat-bottomed polystyrene 96-well microplates (ThermoFisher Scientific, USA) were used for these measurements. To calculate the resulting measured activity (expressed as the percentage of inhibition I), the following formula was applied: [drawing 9] where ΔAi indicates the absorbance change provided by adequate enzyme exposed to the corresponding inhibitor and ΔA0 indicates the absorbance change when a solution of PB was added instead of a solution of the inhibitor. Microsoft Excel (Redmond, WA, USA) and GraphPad Prism version 8.30 for Windows (GraphPad Software, San Diego, CA, USA) were employed for the statistical data analysis. The values of Vmax and Km for the Michaelis–Menten kinetics, as well as the values of Ki (enzyme–inhibitor dissociation constant) and Ki′ (enzyme–substrate–inhibitor dissociation constant), were calculated through nonlinear regression from the substrate velocity curves. Linear regression was used for the calculation of Lineweaver–Burk plots. […]

[3] = Aqueous solubility determination; type: physicochemical; conditions: ultrapure distilled water containing 5% DMSO, 37 °C
Experimental: Briefly, 200 μl of the aqueous solution of compound 33 at the concentration of 50 μM was analyzed for the UV/vis absorption spectrum using a multimode microplate reader (TECAN Spark®, Tecan Group Ltd., Switzerland) and the wavelength of maximum absorbance was used for further testing of the corresponding compound. Subsequently, six consecutive concentrations were prepared for the compound by serial dilution of 50 μM standard solution and the absorbance of these solutions (200 μl) was measured by a microplate reader. The data were used to calculate the calibration curve by the linear regression method. Finally, the over-saturated solutions of the tested compound were prepared and incubated in an ultrasound water bath at 37 °C for 10 min. Then the solutions were centrifuged at 8000 RPM for 10 min and the UV/vis absorption of the supernatant was measured by a microplate reader. The obtained absorption value was used to calculate the maximum water solubility of the tested compound. In case the absorption value of the supernatant was higher than the calibration curve range, the supernatant was diluted with a 5% DMSO/water solution to match the calibration curve.

[4] = biological target: T1, recombinant BChE (hBChE, E.C. 3.1.1.8) (Homo sapiens, UniProt P06276); test: biochemical; type: biochemical; conditions: for IC50: mean ± SEM of three independent measurements, each in triplicate; for inhibition at 10 µM: tested at 10 μM compound concentration, read-out: % inhibition of hBChE ± SEM
T1 construct: purchased Sigma-Aldrich, Prague, Czech Republic
Experimental: The activities of hAChE and hBChE were determined using a modified Ellman's method, as described in ref. [56] and [62] against recombinant AChE (hAChE, E.C. 3.1.1.7) and recombinant BChE (hBChE, E.C. 3.1.1.8), both of which were purchased from Sigma-Aldrich, Prague, Czech Republic. […] The other compounds used, including the phosphate buffer solution (PBS, pH = 7.4), 5,5′-dithio-bis(2-nitrobenzoic) acid (Ellman's reagent, DTNB), acetylthiocholine (ATChI), and butyrylthiocholine (BTChI), were commercially available and purchased from Sigma-Aldrich in Prague, Czech Republic. In brief, the corresponding enzyme (8.3 μL), 5 mM DTNB (283 μL), and the sample dilution in dimethyl sulfoxide (DMSO) at various concentrations (8.3 μL) were added to 96-well microplates (BRAND GMBH + CO KG, Wertheim, Germany) and pre-incubated for 5 minutes in the assay medium. The reaction was initiated by adding 10 mM substrate (ATChI or BTChI, 33.3 μL). […] Each measurement was repeated in triplicate. The percentage of inhibition was calculated using the following formula: [drawing 8] where ΔABl represents the increase in absorbance of the blank sample, and ΔASa represents the increase in absorbance of the measured sample. […] Microsoft Excel (Redmond, WA, USA) and GraphPad Prism version 7 for Windows (GraphPad Software, San Diego, CA, USA) were used for the statistical data evaluation.

in vitro = conditions: human, HepG2 hepatocellular carcinoma cells
Experimental: as §1

[5] = Human liver microsomal (HLM) stability; type: in vitro ADME; conditions: pooled human liver microsomes
Experimental: Briefly, compounds were dissolved in DMSO to produce stock sample solutions. […] Subsequently, 400 μL of supernatant was transferred to the vial and analyzed by LC-MS. Three types of blank samples were prepared in the same way, with a one-step exception. In the biological blank sample, 5 μL of DMSO was added instead of 5 μL stock solution, in the chemical blanks, 50 μL of water was added instead of HLM, and in the case of the control blank sample, 25 μL of water was added instead of 25 μL of RapidStart System.
A Reverse-phase C18 column Kinetex EVO (Phenomenex, Torrance, CA, USA) was used as a stationary phase, and purified water with 0.1% formic acid (mobile phase A) and LC-MS grade acetonitrile with 0.1% formic acid (mobile phase B) were used as the mobile phases. […] The column temperature was kept constant at 27 °C, the flow of the mobile phase was 0.5 mL min^−1, and the injection volume was 1 μL. […]
The peak areas of the compounds (Acmp) and internal standards (AIS) were detected in positive mode in extracted ion chromatograms from the mass spectrometer data. For the determination of microsomal stability, the Acmp/AIS was calculated as logarithmized. […]

[6] = system: recombinant AChE (hAChE, E.C. 3.1.1.7); design: method as in PMID 32455879, PMID 36152726; conditions: template alkaloid, Fig. 1; cited from earlier work

Sequence of hBChE (P06276 29-602): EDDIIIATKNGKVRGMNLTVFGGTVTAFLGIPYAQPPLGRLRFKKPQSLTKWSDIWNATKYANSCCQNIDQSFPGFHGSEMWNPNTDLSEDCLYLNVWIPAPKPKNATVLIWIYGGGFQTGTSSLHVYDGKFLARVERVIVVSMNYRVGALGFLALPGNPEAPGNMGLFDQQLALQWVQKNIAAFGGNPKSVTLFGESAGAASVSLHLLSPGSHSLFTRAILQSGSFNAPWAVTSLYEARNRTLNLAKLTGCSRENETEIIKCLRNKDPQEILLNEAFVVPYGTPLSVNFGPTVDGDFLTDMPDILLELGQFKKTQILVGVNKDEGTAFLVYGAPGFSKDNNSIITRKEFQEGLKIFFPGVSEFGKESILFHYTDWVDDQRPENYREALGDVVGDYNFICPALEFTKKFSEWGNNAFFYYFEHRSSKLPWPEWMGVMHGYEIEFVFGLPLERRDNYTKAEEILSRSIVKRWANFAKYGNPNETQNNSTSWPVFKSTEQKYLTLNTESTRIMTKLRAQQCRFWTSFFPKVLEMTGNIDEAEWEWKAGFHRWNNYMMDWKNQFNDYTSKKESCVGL
T1 sequence (P06276 29-602): as above

| Compound | IC50 at 24 h [1] | Plasma stability (Human plasma stability) | Safety index (HepG2 cells) | Pe ± SEM [2] | BBB penetration estimation CNS (+/−) [2] | Ki (hBChE; enzyme–inhibitor dissociation constant, nonlinear regression) | Ki′ (hBChE; enzyme–substrate–inhibitor dissociation constant, nonlinear regression) | type of enzyme inhibition (hBChE; sum-of-squares F-test, p < 0.0002, Lineweaver–Burk plot) | solubility at 10 min [3] | IC50 [4] | inhibition at 10 µM [4] | IC50 at 24 h (in vitro) | microsomal CLint at 0.75 h, 3 µM ([5]; pH 7.4) | half-life at 0.75 h, 3 µM ([5]; pH 7.4, up to 45 min incubation, read-out: HLM T½) | IC50 [6] |
| --- | --- | --- | --- | --- | --- | --- | --- | --- | --- | --- | --- | --- | --- | --- | --- |
| CCCN(CCc1ccc(O)cc1)Cc1ccc(OCc2ccccc2)cc1 [Compound 33, 4-[2-({[4-(Benzyloxy)phenyl]methyl}(propyl)amino)ethyl]phenol] | 38 ± 3.5 µM | 94.5% | 560 | 11.0 ± 2.2 ×10^−6 cm s^−1 | CNS + (CNS (+) (high BBB permeation predicted): Pe (×10^−6 cm s^−1) > 4.0) | 0.182 ± 0.028 µM | 1.619 ± 0.315 µM | mixed inhibition pattern | 267 µM (≈ 100 µg/mL) | 0.167 ± 0.018 µM | 95 ± 1.1% | 93 ± 11 µM | 161 µL/min/mg | 8.62 min | – |
| C=CCOc1ccc(CCN(CC=C)Cc2ccc(OC)c(OCc3ccccc3)c2)cc1 [Compound 1, reference compound] | > 125 µM | – | – | – | – | – | – | – | – | – | – | – | – | – | – |
| CC(CNCc1cccc(OCc2ccccc2)c1)c1ccccc1 (centres unmarked) [Compound 18, {[3-(Benzyloxy)phenyl]methyl}(2-phenylpropyl)amine] | 36 ± 1.4 µM | – | 290 | 8.1 ± 0.6 ×10^−6 cm s^−1 | CNS + (CNS (+) (high BBB permeation predicted): Pe (×10^−6 cm s^−1) > 4.0) | – | – | – | – | 0.188 ± 0.023 µM | 96 ± 0.3% | 55 ± 6.9 µM | – | – | – |
| Oc1ccc(CCNCc2ccc(OCc3ccccc3)cc2)cc1 [Compound 28, 4-[2-({[4-(Benzyloxy)phenyl]methyl}amino)ethyl]phenol] | 13 ± 1.2 µM | – | 500 | 10.0 ± 0.5 ×10^−6 cm s^−1 | CNS + (CNS (+) (high BBB permeation predicted): Pe (×10^−6 cm s^−1) > 4.0) | – | – | – | – | 0.171 ± 0.063 µM | 97 ± 0.3% | 85 ± 12 µM | – | – | – |
| CN(CCc1ccc(O)cc1)Cc1cc2c(cc1-c1cccc3c1N(C)CC3)OCO2 [carltonine B] | – | – | – | – | – | – | – | – | – | – | – | – | – | – | > 100 µM |
| Oc1ccc(CCNCc2cccc(OCc3ccccc3)c2)cc1 [Compound 4, 4-[2-({[3-(Benzyloxy)phenyl]methyl}amino)ethyl]phenol] | 21 ± 2.4 µM | – | 310 | 14.0 ± 0.4 ×10^−6 cm s^−1 | CNS + (CNS (+) (high BBB permeation predicted): Pe (×10^−6 cm s^−1) > 4.0) | – | – | – | – | 0.193 ± 0.055 µM | 96 ± 0.8% | 60 ± 4 µM | – | – | – |
| COc1ccccc1CCNCc1cccc(OCc2ccccc2)c1 [Compound 5, {[3-(Benzyloxy)phenyl]methyl}[2-(2-methoxyphenyl)ethyl]amine] | 16 ± 2.8 µM | – | 130 | 6.2 ± 0.7 ×10^−6 cm s^−1 | CNS + (CNS (+) (high BBB permeation predicted): Pe (×10^−6 cm s^−1) > 4.0) | – | – | – | – | 0.4 ± 0.1 µM | 94 ± 0.4% | 52 ± 10 µM | – | – | – |
